Source: US8481042B2, “Conjugates of pyrrolo[1,4]benzodiazepine dimers as anticancer agents” (priority 2009, dated 2013)

Experiments:
Format in all cases: cell-based
MDA-MB-231 cells = assay: Inhibition of the proliferation of MDA-MB-231 cells by compounds of formula IA (14C-thymidine pulse at 96 h); details: Homo sapiens; MDA-MB-231, 3 days culture, 14C-thymidine incorporation at 96 h; read-out: Inhibition of the proliferation (14C-thymidine pulse at 96 h) IC50 MDA-MB231
Protocol: (§1) Evaluation of the Inhibition of the Proliferation of the MDA-MB-231, MDA-A1 and HCT116 Cell Lines by the Compounds of Formula IA with ZbRb=−OMe and Y═Y′=−OMe
(§2) The MDA-MB-231, MDA-A1 or HCT116 cells in their exponential growth phase are trypsinized and resuspended in their respective culture medium (DMEM/F12 Gibco #21331, 10% FCS Gibco #10500-056, […] Gibco #25030 for the MDA cells; DMEM Gibco #11960, 10% FCS Gibco #10500-056, 2 mM glutamine Gibco #25030 for the HCT116 cells). The cell suspension is seeded in Cytostar 96-well culture plates (GE Healthcare Europe, #RPNQ0163) in the complete culture medium containing serum at a density of 5000 cells/well (MDA-MB-231, MDA-A1, HCT116). After incubation for 4 hours, successive dilutions of the tomaymycin dimers are added to the wells in triplicate for each concentration. The cells are cultured for 3 days at 37° C. under an atmosphere containing 5% CO2 in the presence of the cytotoxic agents. On the 4th day, 10 μl of a ^14C-thymidine solution (0.1 μCi/well, Perkin Elmer #NEC56825000) are added to each well. The incorporation of ^14C-thymidine is measured 96 hours after the start of the experiment using a MicroBeta radioactivity counter (Perkin Elmer). The data are expressed in the form of a % of survival by determining the ratio between the count obtained with the cells treated with the cytotoxic agent and the count obtained with the cells of the control wells (treated with the culture medium alone).

MDA-A1 cells = assay: Inhibition of the proliferation of MDA-A1 cells by compounds of formula IA (14C-thymidine pulse at 96 h); details: MDA-A1, 3 days culture, 14C-thymidine incorporation at 96 h
Protocol: as §1, §2

HCT116 cells = assay: Inhibition of the proliferation of HCT116 cells by compounds of formula IA (14C-thymidine pulse at 96 h); details: Homo sapiens, HCT-116; HCT116, 3 days culture, 14C-thymidine incorporation at 96 h
Protocol: as §1, §2

| Structure (SMILES) | IC50 (MDA-MB-231 cells) [nM] | IC50 (MDA-A1 cells) [nM] | IC50 (HCT116 cells) [nM] |
| --- | --- | --- | --- |
| C/C=C1\C[C@H]2C=Nc3cc(OCc4cc(OCCN(C)CC(C)(C)SCC(=O)N(C)CCOCCOCCOCCOCCC(=O)OC)cc(COc5cc6c(cc5OC)C(=O)N5C/C(=C/C)C[C@H]5C=N6)n4)c(OC)cc3C(=O)N2C1 | 0.07 | 2.26 | 0.12 |
| C/C=C1\C[C@H]2C=Nc3cc(OCc4cc(COc5cc6c(cc5OC)C(=O)N5C/C(=C/C)C[C@H]5C=N6)cc(C(C)(C)SCC(=O)NCCOCCOCCOCCOCCC(=O)OC)c4)c(OC)cc3C(=O)N2C1 | 0.084 | > 10 | 0.127 |
| C/C=C1\C[C@H]2C=Nc3cc(OCc4cc(OCCN(C)CC(C)(C)SCC(=O)NCCOCCOCCOCCOCCC(=O)OC)cc(COc5cc6c(cc5OC)C(=O)N5C/C(=C/C)C[C@H]5C=N6)n4)c(OC)cc3C(=O)N2C1 | 0.009 | 1.99 | 0.03 |
| C/C=C1\C[C@H]2C=Nc3cc(OCc4cc(OCCN5CCN(C(=O)CCC(C)(C)SCC(=O)NCCOCCOCCOCCOC(=O)OC)CC5)cc(COc5cc6c(cc5OC)C(=O)N5C/C(=C/C)C[C@H]5C=N6)n4)c(OC)cc3C(=O)N2C1 | 0.45 | > 10 | 1.25 |
